Test results from US20150307530A1, “NOVEL MUCOLYTIC AGENTS” (PARION SCIENCES, INC., priority 2012, published 2015).

Tests used:
Muc5B = Muc5B (Homo sapiens, UniProt Q9HC84); assay: Mucin agarose gel western blot: Muc5B reduction in saliva; conditions: 30 minute incubation, FIG. 4; for concentration producing Muc5B (mucin) reduction by downward gel shift: pH 6.5, agarose gel/western blot
Procedure: Analysis of Muc5B reduction by western blot. Saliva was incubated with reducing agents at indicated concentrations for 30 min prior to agarose gel electrophoresis/western blot visualization of unreduced and reduced Muc5B. Both saliva and compounds were buffered to pH 6.5.
Quantitation of Muc5B reduction by western blot.
Saliva samples were aliquoted and incubated with the indicated concentrations of reducing agents (FIG. 4). After a 30 minute incubation, the reducing agents were quenched by the addition of a 10-fold molar excess of N-ethylmaliamide (NEM). The mucus samples were separated by agarose gel electrophoresis and analyzed by western blot.

[1] = DTNB assay: rate of disulfide bond reduction; format: biochemical; conditions: for DTNB reducing kinetics as a function of pH: pH range relevant for mucosal surfaces (pH 6.0-7.5); for DTNB reducing kinetics as a function of pH / reducing kinetic for DTNB reduction compared with NAC and DTT: FIG. 3; for reducing kinetic for DTNB reduction compared with NAC and DTT: comparison with thiol reducing agents
Description: FIG. 2. Spectrophotometric studies monitored formation of reduced DTNB over time. Reaction rates, generated using second order kinetics, for each compound were compared as a function of reducing agent to substrate (DTNB) concentration at pH 6.5.
FIG. 3. Spectrophotometric studies monitored formation of reduced DTNB over time. Reaction rates, generated using second order kinetics, for each compound were over a pH range relevant for mucosal surfaces.
Mucin Agarose Gel Western Blots: Reducing agent stock solutions are made up in 100 mM Potassium Phosphate and are buffered to pH 6.5. The reducing agent stocks are diluted into saliva samples (pH 6.5) to achieve the final desired reducing agent concentration. […] The reactions are quenched using at least a 2-fold excess of N-ethylmaleimide and/or hydrogen peroxide. A 5× concentrated sample loading buffer is diluted into the samples to achieve a 1× concentration (1×TAE, 5% glycerol, 0.1% SDS, Bromophenol Blue). Samples (50 ug) are analyzed by electrophoresis on 0.9% agarose gels using a buffer system consisting of 1×TAE/0.1% SDS. […] Unreduced and reduced Muc5B are visualized using a polyclonal antibody directed towards Muc5B and a Protoblot II AP System with stabilized substrate. […] Each compound solution (10 uL) is added apically to primary hBEs for 6 hrs. The hBEs are lysed in RIPA buffer supplemented with protease inhibitor cocktail (Roche) and 1 mM PMSF. The samples are normalized to contain the same total amount of protein followed by addition of 2×SDS sample buffer (100 mM Tris-HCl (pH6.8)/4% SDS/0.05% Bromophenol Blue/20% glycerol). Samples (20 […]g) are analyzed by electrophoresis on a 10% SDS-PAGE gel and transferred to a nitrocellulose membrane. BiP levels are visualized using a polyclonal antibody directed towards BiP and the LiCor Odyssey imaging detection system. Thapsigargin (TG, 2.5 µM) served as a positive control for BiP induction. DTNB ASSAY: This assay determines the rate which a mucolytic agent can reduce a disulfide bond using 5,5-Dithiobis(2-nitrobenzoic acid). DTNB in various pH buffers and allows comparison of the kinetic rates of reducing agents. […] Max Abs412 was measured and then utilized to calculate the activity concentration.
The kinetics of disulfide bond reduction can be quantitative measured using 5,5′-dithiobis-(2-nitrobenzoic acid) (DTNB or Ellman's Reagent). DTNB contains an internal disulfide bond, which when reduced, gives rise to two molecules of TNB that can be monitored by […] at 412 nm.

[2] = Hydrogen peroxide incubation (oxygen free radical scavenging), read out by DTNB reduction; format: biochemical; conditions: excess hydrogen peroxide, 60 second incubation; FIG. 10
Procedure: FIG. 10. Compound Ib was incubated with excess hydrogen peroxide to assess the ability of Compound Ib to scavenge oxygen free radicals. Following a 60 second incubation with hydrogen peroxide, the activity of Compound Ib was determined by its ability to reduce DTNB (Ellman's Reagent).

Balb-C mice = assay: BALF cellularity after pulmonary aspiration in Balb-C mice; format: in vivo; conditions: pulmonary aspiration (40 ul deposited dose), BALF at 4 and 24 hours post administration, all concentrations tested, FIG. 9
Procedure: FIG. 9. Balb-C mice were administered Compound Ib at the indicated concentrations via pulmonary aspiration (40 ul deposited dose). Bronchoalveolar lavage fluid (BALF) was collected at 4 and 24 hours post administration and the total cellularity of the BALF was determined.

[3] = Elimination of inhaled 14C-labeled NAC from the lungs in animal studies; format: in vivo; conditions: inhaled or intranasal, 14C-labeled NAC administered by inhalation, animal studies (unpublished observation)
Description: NAC, as a topical pulmonary therapeutic agent, is not optimal for the reduction of mucin disulfide bonds. […] For example, in the pH environment of the airway surface (measured in the range of pH 6.0 to 7.2 in CF and COPD airways), NAC exists only partially in its reactive state as a negatively charge thiolate (Jayaraman S, Song Y, Vetrivel L, Shankar L, Verkman A S. Noninvasive in vivo fluorescence measurement of airway-surface liquid depth, salt concentration, and pH. J Clin Invest. 2001; 107(3):317-24) (FIG. 3). […] The relatively low reducing activity at of NAC physiologic airway pH and a the short half-life of NAC on the lung surface provide an explanation for the lack of strong clinical evidence for effective mucus reduction in mucus obstructive diseases.

concentration producing Muc5B (mucin) reduction by downward gel shift (Muc5B) | half-life [3] | SMILES | DTNB reducing kinetics as a function of pH [1] | potency of mucus (Muc5B) reduction relative to NAC and DTT (Muc5B) | activity (ability to reduce DTNB) after incubation with hydrogen peroxide [2] | reducing kinetic for DTNB reduction compared with NAC and DTT [1] | DTNB reduction kinetics as a function of reducing agent to DTNB ratio ([1]; increasing concentrations of reducing agent, fixed concentration of DTNB and pH (7.0), FIG. 2) | total cellularity of the BALF compared to vehicle (Balb-C mice)
≥ 3 mM |  | O[C@H](CS)[C@H](O)CS (racemic) [DTT, dithiothreitol, reference compound] | pH-dependent increase in DTNB reduction |  |  |  |  | 
 |  | NCCP(c1ccccc1)c1ccccc1 [If, 2-(diphenylphosphino)ethanamine] | fastest reducing kinetic tested |  |  | faster reducing kinetic |  | 
> 100 mM | ~20 min | CC(=O)N[C@@H](CS)C(=O)O [NAC, N-acetyl cysteine, reference compound] | pH-dependent increase in DTNB reduction |  |  |  |  | 

SMILES | concentration producing Muc5B (mucin) reduction by downward gel shift (Muc5B) | half-life [3] | DTNB reducing kinetics as a function of pH [1] | potency of mucus (Muc5B) reduction relative to NAC and DTT (Muc5B) | activity (ability to reduce DTNB) after incubation with hydrogen peroxide [2] | reducing kinetic for DTNB reduction compared with NAC and DTT [1] | DTNB reduction kinetics as a function of reducing agent to DTNB ratio ([1]; increasing concentrations of reducing agent, fixed concentration of DTNB and pH (7.0), FIG. 2) | total cellularity of the BALF compared to vehicle (Balb-C mice)
O=C(O)CCP(CCC(=O)O)CCC(=O)O [Compound Ib, 3,3′,3″-phosphinetriyltripropanoic acid] | ≥ 1 mM |  | pH-dependent increase in reducing activity | more potent | decreased the activity | faster reducing kinetic | fastest reduction kinetics at all ratios of reducing agent to DTNB substrate | did not increase BALF cellularity compared to the vehicle
